# Measured values: patent publication US9693954B2, “Co-delivery of stimulatory and inhibitory factors to create temporally stable and spatially restricted zones” (President and Fellows of Harvard College, priority 2010, dated 2017)
# Assays:
# [1] = tested on: dermal human vascular endothelial cells (HMVECs); test: in vitro sprouting assay (cell-seeded dextran beads in fibrin gel); format: cell-based; conditions: HMVEC-coated beads in fibrin gel, 4 days, 10 ng/mL HGF in all media
# Description: Briefly, dermal human vascular endothelial cells (HMVECs) were purchased from Lonza (CC-2543) and cultured to confluence at 37° C. and 5% CO2 in microvascular endothelial cell growth medium-2 (EGM-2MV) (Lonza) containing all supplements. Angiogenic activity of endothelial cells was assessed using a modification of a widely used in vitro sprouting assay (Nehls, V., and Drenckhahn, D. 1995 Microvasc Res 50, 311-322). Briefly, dextran beads microcarriers (Cytodex 3) with a dry weight of 50 mg were swollen in PBS and autoclaved. The microcarriers were washed in EGM-2MV medium and seeded with 3×10^6 HMVECs in a spinner flask. The microcarriers were stirred for 2 minutes out of 30 minutes for […] at 37° C. incubation. After 4 hours, the beads and cells mixture were continuously stirred and incubated for an additional 20 hours. The cell-coated beads were then seeded in fibrin gel in a 24-well-plate. The composition of the fibrin gel in each well was 0.682 mg fibrinogen (Sigma, T3879), 11.4 μg aprotinin (Sigma, A4529), 0.455 U thrombin (Sigma, T6884) in 393 μL of phosphate buffered saline (PBS) and 57 μL of EGM2-MV. Gels were incubated at 37° C. for 30 minutes and media of experimental conditions were placed on top of the gel. […] Media were changed every 24 hours and the cells were allowed to sprout from beads into surrounding gel over 4 days. […]
# angiogenesis = conditions: from previous studies; cited from earlier work
# [2] = tested on: TGF-β reporter line (MLEC p3TP Luc); test: TGF-β reporter cell line luciferase activity; format: cell-based
# Description: (§1) FIG. 22E is a schematic showing an experimental scheme to show the precise kinetics of growth factor exposure on luciferase activity in the reporter lines. Following seeding and serum starvation (reduces background), a specific inhibitor is added to create a uniform inhibitory field. Subsequently, for given amounts of time, the inhibitor is washed off, the growth factor (either TGF-β1 or BMP4) is added for specified time, and washed off followed by re-addition of the inhibitor. At 24 hours, cells are lysed and assayed for luciferase activity.
# (§2) The reporter cell lines were seeded in these 5 layered systems and imaged for luciferase activity after 24 hours to confirm development of spatially distinct morphogens fields.
# [3] = tested on: phospho-Smad2 in D1 (MSCs); test: immunoblot / immunostaining for phospho-Smad2 (2/3) in D1 MSCs; format: cell-based
# Description: (§3) Experiments were carried out with the following morphogens: TGF-β1 to drive dentin differentiation and BMP4 to drive bone differentiation. The scaffold devices were fabricated, loaded with morphogens (in this case, differentiation factors), and then seeded with stem cells, e.g., mesendymal stem cells, embryonic stem cells or induced pluripotent stem cells (iPS)). The loaded, seeded devices were cultured for 21 days with no additional factors present in the media. All factors came from within the scaffold from the point of seeding. Immunoblots were carried out to assess activation of the downstream Smad signaling pathways following treatment of D1s with these morphogens.
# [4] = tested on: BMP4 reporter (C2C12 BRE Luc); test: BMP4 reporter cell line luciferase activity; format: cell-based
# Description: as §1, §2
# [5] = tested on: phospho-Smad1/5/8 in D1 (MSCs); test: immunoblot for phospho-Smad1/5/8 in D1 MSCs; format: cell-based
# Description: as §3
# [6] = inhibitor wash-off / re-addition scheme, lysis at 24 hours
molecule,measurement,setting,value
VEGF,angiogenic sprouting (number of sprouts per bead),[1],induced angiogenic sprouting
same,minimum effective VEGF concentration in vivo to induce angiogenesis,angiogenesis,~5 ng/mL
"TGF-β1: transforming growth factor-β1, morphogen used to drive dentin differentiation",luciferase activity with varying TGF-β1 concentration,[2],linear dose dependence
same,exposure time sufficient for maximal induction of luciferase activity,[2]; [6],5 to 15 min
same,phospho-Smad2 activation (immunoblot),[3],dose-dependent activation
same,phospho-Smad2/3 immunostaining,[3]; following stimulation,nuclear localization of activated Smads
"BMP4: bone morphogenetic protein 4, morphogen used to drive bone differentiation (protein, UniProt P12644 293-408, looked up) Bone morphogenetic protein 4: SPKHHSQRARKKNKNCRRHSLYVDFSDVGWNDWIVAPPGYQAFYCHGDCPFPLADHLNSTNHAIVQTLVNSVNSSIPKACCVPTELSAISMLYLDEYDKVVLKNYQEMVVEGCGCR",luciferase activity with varying BMP4 concentration,[4],linear dose dependence
same,exposure time sufficient for maximal induction of luciferase activity,[4]; [6],5 to 15 min
same,phospho-Smad1/5/8 activation (immunoblot),[5],dose-dependent activation
